Test results from US4279909A, “Antiallergic method” (Fujisawa Pharmaceutical Co., Ltd., priority 1980, dated 1981).
Structures can show the parent of a compound that is named as a salt.

Assays:
Acute toxicity in mouse = conditions: in vivo, po; female mouse, orally, seven days
Protocol: (§1) (6) Acute toxicity in mouse and rat
(§2) Each ten male and female ICR-JCL strain mice and Sprague-Dawley-JCL strain rats were used for each dose.
(§3) Test compound was given to animals in a form of suspension in 0.5% methyl cellose orally. After administration, the incidence of the death was recorded for successive seven days. LD50 values were calculated by the method of Lichfield-Wilcoxon method.

histamine = assay: Antagonistic effect on histamine in vitro (isolated guinea-pig ileum); conditions: histamine 1.0 × 10^-7 g/ml
Protocol: (5) Antagonistic effect on histamine in vitro
The ileum was connected to a strain gauge transducer and the contractions were recorded isometrically.

[1] = test system: anaphylactic bronchoconstriction; assay: Anaphylactic bronchoconstriction in guinea-pigs sensitized with homologous antiserum; type: in vivo; conditions: Cavia porcellus, iv; guinea-pig; intravenously 30 seconds before antigen
Protocol: (c) Guinea-pig antiserum against egg albumin
Five mg of egg albumin emulsified in 0.5 ml of physiological saline and 0.5 ml of Freund's incomplete adjuvant was used as the antigen.
The emulsion was given subcutaneously in a single dose of 1 ml divided equally (0.25 ml) to the four foot pads of male Hartly strain guinea pigs, each weighing 250 to 300 g. Starting two weeks after dosing with the aforementioned emulsion 0.1% egg albumin emulsified in physiological saline was given subcutaneously in equally divided (0.1 ml) doses of 0.4 ml once a week for 4 weeks to four sites on the backs of the test animals. Blood samples were collected from the carotid artery one week after the last injection, and centrifuged at 3000 r.p.m. at room temperature for 15 minutes. The antisera thus obtained were stored at -20° C.
(4) Anaphylactic bronchoconstriction in guinea-pigs sensitized with homologous antiserum
Male Hartly strain guinea-pigs were sensitized with an intravenous injection of 1 ml of homologous antiserum against egg albumin. And 48 hours later, the animals were immobilized with an intraperitoneal dose of 100 mg/kg of gallamine. The trachea was cannulated for artificial respiration which was performed with a miniature respiratory pump (3 ml/stroke, 60 strokes/minute). […]

Acute toxicity in rat = conditions: in vivo, po; female rat, orally, seven days
Protocol: as §1, §2, §3

P.C.A. reaction = assay: Passive cutaneous anaphylaxis (P.C.A.) in rats sensitized with homologous hyperimmune antiserum; type: in vivo; conditions: iv, rat, intravenously 30 seconds before antigen, read-out: ED50 (inhibitory effect of P.C.A. reaction)
Protocol: (b) Rat hyperimmune antiserum against egg albumin
Male Sprague-Dawley JCL strain rats were injected in the four foot pads with 10 mg of egg albumin emulsified in 0.5 ml of saline and 0.5 ml of Freund's complete adjuvant in divided portions. Seven days later, the animals were injected intramuscularly at three sites on a shaved area of their backs with a total of 5 mg of egg albumin emulsified in 0.5 ml of saline and 0.5 ml of Freund's complete adjuvant. On days 28 to 30, the animals were injected intracutaneously at two sites on the back with 0.2 mg of egg albumin in 0.2 ml of saline. The antiserum was obtained 7 days after the last injection and stored at -20° C.
(3) Passive cutaneous anaphylaxis (P.C.A.) in rats sensitized with homologous hyperimmune antiserum
P.C.A. reaction was performed in male Sprague-Dawley JCL strain rats passively sensitized with homologous hyperimmune antiserum against egg albumin. That is, 0.1 ml of the antiserum was injected into the skin on the back of rats, and 4 hours later 1 ml of mixture of egg albumin 5 mg and Evans' blue 5 mg was injected intravenously. One hour later, the animals were killed and the skin was removed. Evans' blue was then extracted from the sensitized spot with 10 ml of 4:1 mixture of aceton and 2% solution of RBS-25. The quantity of Evans' blue was determined by colorimetry at 620 mμ. The drug was given intravenously 30 seconds before dosing with antigen.

[2] = test system: passive cutaneous anaphylaxis (P.C.A.); assay: Antagonism to passive cutaneous anaphylaxis (P.C.A.) in rat sensitized with homologous reaginic antiserum; type: in vivo; conditions: test compound given orally 2 hours and intravenously 5 minutes before antigen
Protocol: (a) Rat reaginic antiserum against egg albumin
One mg of egg albumin emulsified in 0.5 ml of B. pertussisdiphtheria mixed vaccine (Tanabe Seiyaku Company Ltd.) and 0.5 ml of Freund's incomplete adjuvant (Difco) was used as the antigen. The emulsion was given subcutaneously in a single dose of 1 ml divided equally (0.25 ml) to the four foot pads of male Sprague-Dawley JCL strain rats aged 6 weeks, each weighing 170-220 g. Blood samples were collected from the femoral artery 12 days after injection, and centrifuged at 3000 r.p.m. at 4° C. for 15 minutes. The antisera thus obtained were stored at -20° C.
(2) Antagonism to passive cutaneous anaphylaxis (P.C.A.) in rat sensitized with homologous reaginic antiserum
Ten male Sprague-Dawley-JCL strain rats, weighing 290-310 g were used for each dose. The rat reaginic antiserum against egg albumin was used at a dilution 1:4. The animals were sensitized with 0.1 ml of the antiserum injected intracutaneously on the depilated backs of the rats. […] It was further centrifuged at 2000 r.p.m. for 15 minutes and the quantity of the dye in the supernatant solution was determined by colorimetry at 620 mμ. […] The inhibitory effect of test compound was determined from the dye amounts measured in comparison with the control group and the treated group and the ED50 value was calculated according to Litchfield-Wilcoxon method.

SMILES	LD50 at 168 h (Acute toxicity in mouse) [mg/kg]	Percentage inhibition of histamin (histamine; 1.0 × 10^-5 g/ml test compound) [%]	Percentage inhibition of histamin (histamine; 1.6 × 10^-4 g/ml test compound) [%]	Percentage inhibition of histamin (histamine; 4.0 × 10^-5 g/ml test compound) [%]	Percentage inhibition of histamin (histamine; 8.0 × 10^-5 g/ml test compound) [%]	ED50 [1] [mg/kg]	LD50 at 168 h (Acute toxicity in rat) [mg/kg]	ED50 (P.C.A. reaction) [mg/kg]	ED50 [2] [mg/kg]
O=C(Cn1c(=O)sc2ccc(Cl)cc21)N1CCNCC1 [Compound A, 3-(1-piperazinyl)carbonylmethyl-5-chloro-2-benzothiazolinone]	219	14	82	48	59	56	734	9	50
O=C(Cn1c(=O)sc2ccc(Cl)cc21)N1CCN(CCO)CC1 [Compound B, 3-[4-(2-hydroxyethyl)-1-piperazinylcarbonylmethyl]-5-chloro-2-benzothiazolinone hydrochloride]								28	
O=C(Cn1c(=O)sc2ccc(Cl)cc21)N1CCC(O)CC1 [Compound C, 3-(4-hydroxypiperidino)carbonylmethyl-5-chloro-2-benzothiazolinone]								32	
O=C(O)c1cc(=O)c2c(OCC(O)COc3cccc4oc(C(=O)O)cc(=O)c34)cccc2o1 [Compound D, disodium chromoglycate, reference compound]		2	1	4				105	
